Legend:
CD16a-158F FcR = target: T1, CD16a-158F FcR (Homo sapiens, UniProt P08637); assay: Jurkat-CD16a-158F-luciferase (JKT-CD16a) reporter bioassay; type: cell-based
T1 construct: host or cells: Jurkat (JKT-CD16a luciferase reporter line)

[1] = Metabolic stability in human liver microsomes; type: in vitro ADME
Experimental: (§1) We next tested Compounds 2, 26, 27 and 33 for metabolic stability using human and mouse microsomes. For each test compound, samples were diluted a final concentration of 2 μg/mL in 25 mM potassium phosphate buffer with liver microsomes of each species at a final concentration of 0.5 mg/mL. The enzyme reaction was initiated by the addition of NADPH reagent at a final concentration of 1 mM. For negative control samples, NADPH reagent was not added. Samples were incubated at 37° C. on a 50-RPM orbital shaker, and an aliquot was removed at pre-determined timepoints at 0, 5, 10, 15, 30, and 60 minutes. Samples were then precipitated with three volume of acetonitrile containing propranolol as an internal standard, and centrifuged for 10 min at 2000 g then analyzed by LC/MS/MS. Note that compounds undergo only Phase I metabolism in liver microsomes in the presence of NADPH cofactors. Data interpretation of results are based on percent parent compound remaining relative to 0-minute incubation samples, from which the elimination half-life is calculated based on the natural log of % compound remaining vs. time plot. The following parameters were calculated to estimate the compound's in vitro metabolic stability: Cmp=concentration of microsomal proteins (mg/mL); t1/2=the half-life (min), where t1/2 is equal to 0.693/slope; CLint=the intrinsic hepatic clearance (μL/min/mg), where CLint is equal to 0.693/(t1/2×Cmp).

human CD16a-158F = target: T2, human CD16a-158F (Homo sapiens, UniProt P08637); assay: ELISA: CD16a-158F-HIS binding to coated pertuzumab (PTZ); conditions: for enhancement of CD16a-158F binding to IgG (PTZ): 10 μM, P<0.005; for suppression of CD16a-PTZ interaction: 2.5 μg/mL PTZ coat, human CD16a-158F-HIS probe, P≤0.005
T2 construct: made in house
Experimental: (§2) Analysis of Compound 2 derived analogs described in Example 3 were conducted testing for enhanced CD16a FcR binding to IgG via ELISA. Briefly, 96 well plates were coated with PTZ as described above and probed with CD16a-158F-HIS in the presence of 10 μM parental Compound 2 and R5/R6 Compound analogs 22-34 to assay for those mediating enhanced CD16a-IgG binding. […] To further evaluate the impact of enhanced binding these compounds were tested for enhancing human PBMC ADCC as described above. Human breast cancer SKBR3 cells were plated in black 96-well microplates at 5,000 cell/well in R7.5 and grown overnight at 37° C. in 5% CO2. The next day 50,000 PBMCs in R1 medium were added per well in the presence of 1 or 5 μM of each compound or ethanol (EtOH) vehicle control in triplicates. Wells treated with EtOH and PTZ without PBMCs were used as a negative control. Cultures were incubated for 24 hours at 37° C. in 5% CO2 in triplicate. After incubation, target cell viability was quantified via Cell Titer-GLO (Promega) using a Varioskan plate reader. Units are shown as relative luminescent units (RLU).
Analogs of this class may be useful for suppressing inflammatory diseases. […] The teaching here has shown that the Compound 1, 2, 3 and 4 scaffolds can be utilized to add chemical groups that can enhance their activity for CD16a stimulation. Here we provide an example of how these scaffolds can be used to develop CD16a antagonists to suppress CD16a-IgG interactions and downstream activities, including production of proinflammatory cytokines such as IFNγ. FIGS. 10 and 13 show ELISA binding assays as described in Example 1. Briefly, 96-well clear microplates were coated with 2.5 μg/mL pertuzumab (PTZ) IgG or HSA as negative control (no PTZ). Wells were then probed with human CD16a-158F-HIS with or without compounds to monitor CD16a-PTZ binding. […] These scaffolds embody a primary inventive step that is taught within this application.

[2] = Metabolic stability in mouse liver microsomes; type: in vitro ADME
Experimental: as §1

NK cells = assay: Tolerability and NK cell activation markers after repeated oral dosing in mice; type: in vivo, mouse
Experimental: To determine the tolerability and ability to systemically activate NK cells in mice, we tested orally administered Compound 27 to mice. Six mice were randomized into treatment groups vehicle control (water) and 100 mg/kg Compound 27 all suspended in 0.5% hydroxypropyl methylcellulose. Mice were dosed orally on days 1-5, 7, 9, 11, 13, 15 and sacrificed on day 16 at which time plasma was collected. Tolerability was based on Day 1 bodyweight of each mouse. The maximum tolerated dose is determined as weight loss exceeding 20% or >10% of animals in a group die.
To confirm that oral administration of Compound 27 activated NK cells, the NK activation markers IFNγ and TNFα were measured from day 16 harvested plasma via ELISA using methods described in Example 1. […] These scaffolds embody a primary inventive step that is taught within this application.

in vivo = conditions: mouse, po, 100 mg/kg
Experimental: To further determine the pharmacologic properties of Compound 27, we tested for its oral bioavailability and ability to activate NK cells systemically in mice as determined measuring NK cell activation markers IFNγ and TNFα. For oral bioavailability, mice were fed a standard laboratory rodent diet and housed in individual cages on a 12-hour light and 12-hour dark cycle with at […] and relative humidity at 50±20%. Animals are fasted overnight before dosing, with food returned after 6 hours at which time blood samples are obtained. Water is provided ad libitum throughout the study. Compound 27 was prepared by grinding its precipitated powder into fine particles and suspended in 0.5% hydroxypropyl methylcellulose (HPMC) in water. Three animals were dosed via gavage needle for oral administration at 100 mg/kg (10 mL/kg). Blood samples (25-30 μL per sample) were taken via the saphenous vein at 5, 15, 30 minutes, and 1, 2, 4, 6, 8, 24 hours after administration. Additional blood samples (150-200 μL per sample) were taken at 24 hours for cytokine analysis. Blood samples were collected in Greiner MiniCollect K2EDTA tubes, placed on ice, and within 30 minutes, centrifuged at 15,000 g for 5 min to obtain plasma samples with additional 50-100 μLs of each plasma sample collected at 24 hours. All plasma samples were stored at −70° C. until analysis.
Bioanalysis of plasma samples were conducted as follows. Plasma samples were prepared using three volumes of acetonitrile containing internal standard to one volume of plasma to precipitate proteins. Samples were centrifuged at 3000 g for 10 minutes and supernatant removed for analysis by LC-MS/MS. Calibration standards and quality controls were made by preparation of a 1 mg/mL stock solution and subsequently a series of working solutions in methanol:water (1:1, v/v), which were spiked into blank plasma to yield a series of calibration standard samples ranging from 1 ng/ml to 10 μg/mL and quality control samples at three concentration levels (low, middle and high). All incurred plasma samples were treated identically to the calibration standards and quality control samples. LC-MS/MS analysis was performed utilizing multiple reaction monitoring for detection of characteristic ions for each drug candidate, additional related analytes and internal standard. Plasma concentrations are measured as described above to determine a concentration vs. time profile. The area under the plasma concentration vs time curve (AUC) is calculated using the linear trapezoidal method, known by those skilled in the art. Fitting of the data to obtain pharmacokinetic (PK) parameters was carried out using non-compartmental analysis.
Key PK parameters reported following extravascular administration are as follows: terminal half-life t1/2, maximum plasma concentration Cmax, time to reach maximum plasma concentration tmax, area under the plasma concentration vs. time curve AUC, mean residence time MRT, and bioavailability F. All parameters are expressed for individual animals as well as mean, standard deviation, and coefficient of variation and are commonly known by those skilled in the art.

SKBR3 cells = assay: ADCC killing of SKBR3 cells via pertuzumab with human PBMCs; type: cell-based; conditions: 1 or 5 μM, PTZ, 24 hours, P<0.0000075 over Compound 2
Experimental: as §2

T2 sequence (P08637 with tags, fused parts or gaps): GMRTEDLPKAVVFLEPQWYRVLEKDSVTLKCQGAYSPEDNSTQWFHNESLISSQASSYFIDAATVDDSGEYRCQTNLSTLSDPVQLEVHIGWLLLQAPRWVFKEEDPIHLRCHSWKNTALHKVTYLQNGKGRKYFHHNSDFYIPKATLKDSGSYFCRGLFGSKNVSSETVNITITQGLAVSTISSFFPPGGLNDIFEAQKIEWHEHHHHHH
T1 sequence (P08637 17-254): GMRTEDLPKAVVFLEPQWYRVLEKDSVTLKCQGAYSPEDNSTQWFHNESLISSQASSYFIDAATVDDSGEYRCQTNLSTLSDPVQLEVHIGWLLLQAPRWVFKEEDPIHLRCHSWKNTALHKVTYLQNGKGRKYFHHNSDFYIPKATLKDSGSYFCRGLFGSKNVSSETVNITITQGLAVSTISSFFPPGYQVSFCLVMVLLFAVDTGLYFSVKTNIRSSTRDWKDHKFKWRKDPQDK
T1 sequence (P20963 22-164 partner): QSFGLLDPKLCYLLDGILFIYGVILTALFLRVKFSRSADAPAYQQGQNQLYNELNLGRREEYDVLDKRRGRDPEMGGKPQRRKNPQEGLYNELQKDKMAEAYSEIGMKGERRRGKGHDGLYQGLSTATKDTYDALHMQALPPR

Which results are given for CC(C)=CCC[C@@H](C)[C@H]1CC[C@@]2(C)C3=C(CC[C@]12C)[C@@]1(C)CC[C@H](O)C(C)(C)[C@@H]1CC3 [Compound 1, lanosta-8,24-dien-3β-ol]?
JKT-CD16a activation (luciferase RLU) in the presence of IgG (CD16a-158F FcR; OV-CD20 target cells plus 2.5 μg/mL rituximab, 12-18 hours, vs vehicle or no compound): significant enhancement; JKT-CD16a-158F FcR activation (luciferase RLU) in the absence of IgG antibody (CD16a-158F FcR; OV-CD20 target cells without antibody, lower levels than with IgG): stimulated

For CC(C)NCCC[C@@H](C)[C@H]1CC[C@@]2(C)C3CC[C@H]4C(C)(C)[C@@H](O)CC[C@@]45C[C@@]35CC[C@]12C (stereo partly drawn) [Compound 26], which microsomal CLint at 2 μg/mL ([1]; human liver microsomes 0.5 mg/mL, 2 μg/mL compound, NADPH, read-out: CLint (μL/min/mg protein) human) is on record?
The microsomal CLint at 2 μg/mL was 3.04 µL/min/mg.

And the half-life at 2 μg/mL ([1]; human liver microsomes 0.5 mg/mL, 2 μg/mL compound, NADPH, read-out: T½ (minutes) human)?
The half-life at 2 μg/mL was 456 min.

And the “enhancement of CD16a-158F binding to IgG (PTZ)” value (human CD16a-158F)?
Its value is “significantly enhanced”.

What about the microsomal CLint at 2 μg/mL ([2]; mouse liver microsomes 0.5 mg/mL, 2 μg/mL compound, NADPH, read-out: CLint (μL/min/mg protein) mouse) of the same compound?
The microsomal CLint at 2 μg/mL was 2.16 µL/min/mg.

And the half-life at 2 μg/mL ([2]; mouse liver microsomes 0.5 mg/mL, 2 μg/mL compound, NADPH, read-out: T½ (minutes) mouse)?
Its half-life at 2 μg/mL is 641 min.

What does the source list for C[C@H](CCCN1CCCCC1)[C@H]1CC[C@@]2(C)C3CC[C@H]4C(C)(C)[C@@H](O)CC[C@@]45C[C@@]35CC[C@]12C (stereo partly drawn) [Compound 27]?
tolerability of multiple oral dosing (health, body weight) (NK cells; 100 mg/kg oral on days 1-5, 7, 9, 11, 13, 15): well tolerated; plasma NK cell activation markers IFNγ and TNFα (NK cells; 100 mg/kg oral, day 16 plasma, ELISA, vs vehicle, P<0.0056): upregulated; half-life at 2 μg/mL ([1]; human, microsomes): 701 min; microsomal CLint at 2 μg/mL ([1]; human, microsomes): 1.98 µL/min/mg; AUC(0-t) (in vivo): 7750 ng·h/mL; Cmax (in vivo): 511 ng/mL; Tmax (in vivo): ≤ 6 h; bioavailability (in vivo): 11.7%; concentration at 24 hours (in vivo): 242 ng/mL; half-life (in vivo): 18.3 h; enhancement of CD16a-158F binding to IgG (PTZ) (human CD16a-158F): significantly enhanced; half-life at 2 μg/mL ([2]; mouse, microsomes): 610 min; microsomal CLint at 2 μg/mL ([2]; mouse, microsomes): 2.27 µL/min/mg; enhancement of ADCC killing of SKBR3 cells (SKBR3 cells): enhanced ADCC most significantly

With C[C@H](CCC(=O)O)[C@H]1CC[C@@]2(C)C3CC[C@H]4C(C)(C)[C@@H](O)CC[C@@]45C[C@@]35CC[C@]12C (stereo partly drawn) [Compound 29] as the compound, how does the “suppression of CD16a-PTZ interaction” value (human CD16a-158F) read?
Its value is ~ 49%.

With C[C@H](CCCO)[C@H]1CC[C@@]2(C)C3CC[C@H]4C(C)(C)[C@@H](O)CC[C@@]45C[C@@]35CC[C@]12C (stereo partly drawn) [Compound 31] as the compound, how does the “suppression of CD16a-PTZ interaction” value (human CD16a-158F) read?
The value was ~ 49%.

Which “suppression of CD16a-PTZ interaction” value (human CD16a-158F) does the source give for C[C@H](CCCNCCOCCO)[C@H]1CC[C@@]2(C)C3CC[C@H]4C(C)(C)[C@@H](O)CC[C@@]45C[C@@]35CC[C@]12C (stereo partly drawn) [Compound 32] here?
The value was ~ 49%.

Which half-life at 2 μg/mL ([1]; human, microsomes) does the source give for C[C@H](CCCNCCOCCOCCOCCOCCOCCOCCOCCOCCOCCOCCOCCO)[C@H]1CC[C@@]2(C)C3CC[C@H]4C(C)(C)[C@@H](O)CC[C@@]45C[C@@]35CC[C@]12C (stereo partly drawn) [Compound 33] here?
The half-life at 2 μg/mL was 64.5 min.

And the microsomal CLint at 2 μg/mL ([1]; human, microsomes)?
The microsomal CLint at 2 μg/mL was 21.5 µL/min/mg.

And the “enhancement of CD16a-158F binding to IgG (PTZ)” value (human CD16a-158F)?
Its value is “significantly enhanced”.

And the half-life at 2 μg/mL ([2]; mouse, microsomes)?
Its half-life at 2 μg/mL is 65.8 min.

And the microsomal CLint at 2 μg/mL ([2]; mouse, microsomes)?
Its microsomal CLint at 2 μg/mL is 21.1 µL/min/mg.

What about the “enhancement of ADCC killing of SKBR3 cells” value (SKBR3 cells) of the same compound?
The value was “enhanced ADCC most significantly”.

Source: patent publication US20260256811A1, “Humoral Immune Activators for the Treatment of Humoral Immunosuppressed Pathologies, Cancer and Infectious Disease and Humoral Immune Suppressors for the Treatment of Inflammatory Diseases” (Navrogen, Inc., priority 2022, published 2026)
